# Source: US20180021429A1, “ANTICANCER AGENTS OR ANTIMETASTATIC AGENTS USING FSTL1 AND COMBINATION DRUG THEREOF” (PHARMA FOODS INTERNATIONAL CO., LTD., priority 2015, published 2018)
# Tested on: mouse lung cancer 3LL
# Experiment: Combined use with CPA in subcutaneously mouse lung cancer 3LL-transplanted model (Example 35)
# Type: in vivo
# Conditions: CPA 2 mg/mouse/day i.p. days 4-7; anti-FSTL1 antibody 5 mg/kg i.p. days 8 and 11
structure (smiles),measurement,value
"O=P1(N(CCCl)CCCl)NCCCO1 (stereo not shown) [CPA, cyclophosphamide]",subcutaneous tumor growth / antitumor effect,strongly suppressed subcutaneous tumor growth
